Measurements as given in US20230066011A1, “PYRROLOPYRIMIDINE DERIVATIVE, AND PHARMACEUTICAL COMPOSITION FOR PREVENTING OR TREATING PROTEIN KINASE-RELATED DISEASE COMPRISING SAME AS ACTIVE INGREDIENT” (VORONOI CO., LTD., priority 2019, published 2023).

Legend:
human GST-CLK1 = biological target: T1, human GST-CLK1 (Homo sapiens, UniProt P49759); test: GST-CLK1 enzyme inhibition, ADP-Glo kinase assay; type: biochemical; conditions: ATP 10 μM, GST-CLK1 129-end
T1 construct: purified human GST-CLK1 (129-end, SignalChem) enzyme; purchased SignalChem
T1 sequence (P49759 129-484 limits assumed): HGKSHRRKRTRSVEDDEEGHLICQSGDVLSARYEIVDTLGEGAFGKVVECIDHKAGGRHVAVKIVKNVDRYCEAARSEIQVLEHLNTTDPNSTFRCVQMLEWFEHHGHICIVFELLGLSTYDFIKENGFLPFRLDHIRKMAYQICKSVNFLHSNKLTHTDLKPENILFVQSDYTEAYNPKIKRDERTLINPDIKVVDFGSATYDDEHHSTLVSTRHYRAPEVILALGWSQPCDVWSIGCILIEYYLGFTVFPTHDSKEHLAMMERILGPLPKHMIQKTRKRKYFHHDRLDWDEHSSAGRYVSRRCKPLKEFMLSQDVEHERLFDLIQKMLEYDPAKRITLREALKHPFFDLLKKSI
Method: (§1) To evaluate an inhibitory activity of the compound according to the present invention against LRRK2, LRRK2 (G2019S), DYRK1, CLK1, and TTK kinases, experiments were performed as follows.
(§2) Each of the Example compounds was reacted with a purified human GST-CLK1 (129-end, SignalChem) enzyme to evaluate an ability to inhibit an enzyme using a method as described below. A composition of 40 mM Tris-HCl (pH 7.4), 20 mM MgCl2, 0.5 mg/mL BSA, and 50 μM DTT was used as a reaction buffer, and all reactions of test substances were performed in the reaction buffer. In the test, purified ATP (10 μM) and a specific substrate solution were reacted with a human GST-CLK1 (129-end, 3 ng) enzyme at 25° C. for an hour, and the enzyme activities were then determined using an in vitro ADP-Glo™ kinase assay (Promega). An enzyme-activity reaction solution, an ADP-Glo reaction solution, and an enzyme-ability detection solution were reacted at a ratio of 2:2:1 to measure a degree of inhibition of the enzyme activity with luminescence. The degree of inhibition of the enzyme activity according to the treatment concentration of each of the compounds was calculated based on the fluorescence of the enzyme activity of the solvent control which was not treated with the compound. In this case, the concentration of each of the compounds inhibiting 50% of the enzyme activity was determined to be an IC50 (nM) value. The IC50 (nM) value of each of the compounds was determined from 3 sets of data, and calculated using Prism (Version 5.01; GraphPad) software.

human GST-DYRK1A = biological target: T2, human GST-DYRK1A (Homo sapiens, UniProt Q13627); test: GST-DYRK1A enzyme inhibition, ADP-Glo kinase assay; type: biochemical; conditions: ATP 10 μM, GST-DYRK1A full length, read-out: DYRK1 IC50
T2 construct: purified human GST-DYRK1A (full length, Thermo Scientifics) enzyme; purchased Thermo Scientifics
Method: as §1
as §2, with “GST-DYRK1A (full length, Thermo Scientifics)” for “GST-CLK1 (129-end, SignalChem)”, “GST-DYRK1A (full length, 10” for “GST-CLK1 (129-end, 3”, “value, and the” for “value. The”

| IC50 (human GST-CLK1) | IC50 (human GST-DYRK1A) | SMILES |
| --- | --- | --- |
| 301 to 1000 nM | 301 to 1000 nM | COc1cc(S(C)(=O)=O)ccc1Nc1nc(NCC2CCC2)c2c(C(F)(F)F)c[nH]c2n1 [Example 198, N^4-(cyclobutylmethyl)-N^2-(2-methoxy-4-(methylsulfonyl)phenyl)-5-(trifluoromethyl)-7H-pyrrolo[2,3-d]pyrimidine-2,4-diamine] |
| < 100 nM | 301 to 1000 nM | CC(C)CNc1nc(Nc2ccc(C(=O)N3CCC(N4CCOCC4)CC3)c3c2OCCO3)nc2[nH]cc(C(F)(F)F)c12 [Example 199, (8-((4-(isobutylamino)-5-(trifluoromethyl)-7H-pyrrolo[2,3-d]pyrimidin-2-yl)amino)-2,3-dihydrobenzo[b][1,4]dioxin-5-yl)(4-morpholinopiperidin-1-yl)methanone] |
| < 100 nM | 301 to 1000 nM | O=C(c1ccc(Nc2nc(NCC3CC3)c3c(C(F)(F)F)c[nH]c3n2)c2c1OCCO2)N1CCOCC1 [Example 201, (8-((4-((cyclopropylmethyl)amino)-5-(trifluoromethyl)-7H-pyrrolo[2,3-d]pyrimidin-2-yl)amino)-2,3-dihydrobenzo[b][1,4]dioxin-5-yl)(morpholino)methanone] |
| 301 to 1000 nM | 101 to 300 nM | O=C(c1ccc(Nc2nc(NC3CCCCC3)c3c(C(F)(F)F)c[nH]c3n2)c2c1OCCO2)N1CCC(N2CCOCC2)CC1 [Example 204, (8-((4-(cyclohexylamino)-5-(trifluoromethyl)-7H-pyrrolo[2,3-d]pyrimidin-2-yl)amino)-2,3-dihydrobenzo[b][1,4]dioxin-5-yl)(4-morpholinopiperidin-1-yl)methanone] |
| 301 to 1000 nM | 301 to 1000 nM | O=C(c1ccc(Nc2nc(NCC3CCCC3)c3c(C(F)(F)F)c[nH]c3n2)c2c1OCCO2)N1CCOCC1 [Example 205, (8-((4-((cyclopentylmethyl)amino)-5-(trifluoromethyl)-7H-pyrrolo[2,3-d]pyrimidin-2-yl)amino)-2,3-dihydrobenzo[b][1,4]dioxin-5-yl)(morpholino)methanone] |
| 301 to 1000 nM | 301 to 1000 nM | COc1cc(S(C)(=O)=O)ccc1Nc1nc(NCC2CCCC2)c2c(C(F)(F)F)c[nH]c2n1 [Example 206, N^4-(cyclopentylmethyl)-N^2-(2-methoxy-4-(methylsulfonyl)phenyl)-5-(trifluoromethyl)-7H-pyrrolo[2,3-d]pyrimidine-2,4-diamine] |
| 301 to 1000 nM | 301 to 1000 nM | CCCCNc1nc(Nc2ccc(C(=O)N3CCOCC3)c3c2OCCO3)nc2[nH]cc(C(F)(F)F)c12 [Example 208, (8-((4-(butylamino)-5-(trifluoromethyl)-7H-pyrrolo[2,3-d]pyrimidin-2-yl)amino)-2,3-dihydrobenzo[b][1,4]dioxin-5-yl)(morpholino)methanone] |
| 301 to 1000 nM | 301 to 1000 nM | COCCNc1nc(Nc2ccc(S(=O)(=O)N3CCC(N4CCOCC4)CC3)cc2OC)nc2[nH]cc(C(N)=O)c12 [Example 233, 2-((2-methoxy-4-((4-morpholinopiperidin-1-yl)sulfonyl)phenyl)amino)-4-((2-methoxyethyl)amino)-7H-pyrrolo[2,3-d]pyrimdiine-5-carboxamide] |
| 301 to 1000 nM | 301 to 1000 nM | COCCNc1nc(Nc2ccc(S(C)(=O)=O)cc2OC)nc2[nH]cc(C(N)=O)c12 [Example 234, 2-((2-methoxy-4-(methylsulfonyl)phenyl)amino)-4-((2-methoxy)amino)-7H-pyrrolo[2,3-d]pyrimidine-5-carboxamide] |
| 301 to 1000 nM | 301 to 1000 nM | COc1cc(P2(=O)CCN(C3COC3)CC2)ccc1Nc1nc(NC2CCCC2)c2cc[nH]c2n1 [Example 239, 4-(4-((4-(cyclopentylamino)-7H-pyrrolo[2,3-d]pyrimidin-2-yl)amino)-3-methoxyphenyl)-1-(oxetan-3-yl)-1,4-azaphosphinane 4-oxide] |
| 301 to 1000 nM | 301 to 1000 nM | COc1cc(P2(=O)CCN(C3COC3)CC2)ccc1Nc1nc(NC2CCCCC2)c2cc[nH]c2n1 [Example 240, 4-(4-((4-(cyclohexylamino)-7H-pyrrolo[2,3-d]pyrimidin-2-yl)amino)-3-methoxyphenyl)-1-(oxetan-3-yl)-1,4-azaphosphinane 4-oxide] |
| 301 to 1000 nM | 101 to 300 nM | CCNc1nc(Nc2ccc(P(C)(C)=O)cc2OC)nc2[nH]cc(C#N)c12 [Example 252, 2-((4-(dimethylphosphoryl)-2-methoxyphenyl)amino)-4-(ethylamino)-7H-pyrrolo[2,3-d]pyrimidine-5-carbonitrile] |
| 301 to 1000 nM | 301 to 1000 nM | CNc1nc(Nc2ccc(P(C)(C)=O)cc2OC)nc2[nH]cc(C#N)c12 [Example 253, 2-((4-(dimethylphosphoryl)-2-methoxyphenyl)amino)-4-(methylamino)-7H-pyrrolo[2,3-d]pyrimidine-5-carbonitrile] |
| 101 to 300 nM | 101 to 300 nM | CCCNc1nc(Nc2ccc(P(C)(C)=O)cc2OC)nc2[nH]cc(C#N)c12 [Example 254, 2-((4-(dimethylphosphoryl)-2-methoxyphenyl)amino)-4-(propylamino)-7H-pyrrolo[2,3-d]pyrimidine-5-carbonitrile] |
| 301 to 1000 nM | 301 to 1000 nM | COc1cc(P(C)(C)=O)ccc1Nc1nc(NCC(C)C)c2c(C#N)c[nH]c2n1 [Example 255, 2-((4-(dimethylphosphoryl)-2-methoxyphenyl)amino)-4-(isobutylamino)-7H-pyrrolo[2,3-d]pyrimidine-5-carbonitrile] |
| < 100 nM | 301 to 1000 nM | CCNc1nc(Nc2ccc(C(=O)N3CCC(N4CCOCC4)CC3)c3c2OCCO3)nc2[nH]cc(C#N)c12 [Example 258, 4-(ethylamino)-2-((8-(4-morpholinopiperidine-1-carbonyl)-2,3-dihydrobenzo[b][1,4]dioxin-5-yl)amino)-7H-pyrrolo[2,3-d]pyrimidine-5-carbonitrile] |
| 301 to 1000 nM | 301 to 1000 nM | CC[C@@H](C)Nc1nc(Nc2ccc(S(C)(=O)=O)cc2OC)nc2[nH]cc(C#N)c12 [Example 262, (R)-4-(sec-butylamino)-2-((2-methoxy-4-(methylsulfonyl)phenyl)amino)-7H-pyrrolo[2,3-d]pyrimidine-5-carbonitrile] |
| < 100 nM | 101 to 300 nM | CCNc1nc(Nc2ccc(C(=O)N3CCC(N4CCOCC4)CC3)c3c2OCO3)nc2[nH]cc(C#N)c12 [Example 264, 4-(ethyalmino)-2-((7-(4-morpholino-1-carbonyl)benzo[d][1,3]dioxol-4-yl)amino)-7H-pyrrolo[2,3-d]pyrimidine-5-carbonitrile] |
| 101 to 300 nM | 101 to 300 nM | CCNc1nc(Nc2ccc(C(=O)N3CCN(C4COC4)CC3)c3c2OCCO3)nc2[nH]cc(C#N)c12 [Example 265, 4-(ethylamino)-2-((8-(4-(oxetan-3-yl)piperazine-1-carbonyl)-2,3-dihydrobenzo[b][1,4]dioxin-5-yl)amino)-7H-pyrrolo[2,3-d]pyrimidine-5-carbonitrile] |
| < 100 nM | 101 to 300 nM | CC[C@@H](C)Nc1nc(Nc2ccc(P(C)(C)=O)cc2OC)nc2[nH]cc(C#N)c12 [Example 266, (R)-4-(sec-butylamino)-2-((4-(dimethylphosphoryl)-2-methoxyphenyl)amino)-7H-pyrrolo[2,3-d]pyrimidine-5-carbonitrile] |
